Patent publication US10556943B2, “HLA-DR binding peptides and their uses” (priority 2007, dated 2020)
Ends that are not written are not given here.

Legend:
[1] = test system: short term T cell lines; test: IFN-γ ELISpot analysis of short term T cell lines (natural processing); assay type: cell-based, human; conditions: T cell lines respond to peptide and protein fragment; FIGS. 5, 6
[2] = target: T1, purified HLA DRB1*0701 (Homo sapiens, UniProt P01903+P01911, A100R/A102G/A103Q/D57E/D86V/E43K/F76Y/K127E/L162R/M171V/P40G/Q125H/Q99D/R33Q/R42Y/R54Q/S133A/S66F/T210M/V115G/Y107V/Y59L/Y89S); test: HLA-DR radioligand binding inhibition assay, DRB1*0701
T1 construct: MHC molecules utilized were purified from EBV transformed homozygous cell lines or single MHC allele transfected 721.221, C1R, or fibroblast lines; made in house; host or cells: EBV transformed homozygous cell lines or single MHC allele transfected 721.221, C1R, or fibroblast lines
Procedure: (§1) Fifteen distinct HLA-DR molecules were used in quantitative assays to measure the binding of peptides to solubilized HLA-DR molecules. […] Briefly, columns of inactivated Sepharose CL4B and Protein A Sepharose were used as pre-columns. HLA-DR molecules were captured by passage of lysates over LB3.1 monoclonal antibody (anti-HLA-DRA) columns. Antibody columns were washed with 10 mM Tris-HCL, pH8.0 with 1% (v/v) NP-40, followed by PBS containing 0.4% (w/v) n-octylglucoside.
(§2) Briefly, 1-10 nM of radiolabeled peptide was co-incubated for 2 days at either room temperature or 37° C. with 1 μM to 1 nM purified HLA-DR molecules in the presence of a cocktail of protease inhibitors. Assays were performed at various pH conditions, ranging from pH 4 to pH 7. […] After incubation, the percentage of HLA-DR-bound radioactivity is determined by capturing HLA-DR/peptide complexes on Optiplates (Packard Instruments, Meriden, Conn.) coated with the LB3.1 antibody and determining bound counts per minute using the TopCount microscintillation counter (Packard Instruments).

[3] = test system: patient-derived PBMC; test: 10-day interferon-gamma ELIspot on PBMC of patients and healthy donors; assay type: cell-based, human; conditions: for % = Percent of patients with responses: ELIspot, patients with either breast or ovarian cancer; for fraction of patients that had mean T cell values above the cutoff: cutoff = mean and two standard deviations of normal healthy individuals
From the text: Enzyme-linked immunosorbent spot assay.
An interferon-gamma ELIspot assay was used to assess immunity to the indiscriminate binding peptides in 48 patients with either breast or ovarian cancer and 18 healthy controls.
Using an ELIspot assay with a limit of detection of approximately 1:100,000 antigen-specific T cells per million PBMC, patient-derived PBMC were screened for reactivity against all of the HLA-DR binding peptides.

[4] = target: T2, purified HLA DRB1*0404 (Homo sapiens, UniProt P01903+P01911, A100R/A169T/F76Y/I96L/K127E/L162R/M171V/N62H/P40V/Q125Y/R42H/S133A/S149N/S66Y/V209L/W38E); test: HLA-DR radioligand binding inhibition assay, DRB1*0404
T2 construct: MHC molecules utilized were purified from EBV transformed homozygous cell lines or single MHC allele transfected 721.221, C1R, or fibroblast lines; made in house; host or cells: EBV transformed homozygous cell lines or single MHC allele transfected 721.221, C1R, or fibroblast lines
Procedure: as §1, with “n-octylglucoside. […] The pH was reduced to 8.0 and the eluates were concentrated by centrifugation in Centriprep 30 concentrators at 2000 rpm (Amicon, Beverly, Mass.).” for “n-octylglucoside.”
as §2, with “Instruments). […] Competitor peptides are tested in 2-4 complete, independent experiments, at concentrations ranging from 30 μg/mL to 300 pg/mL.” for “Instruments).”

Row | Compound | naturally processed and presented antigen [1] | % = Percent of patients with responses [3] [%] | also measured
1 | CC(C)C[C@H](NC(=O)[C@H](CC(C)C)NC(=O)[C@H](CC(C)C)NC(=O)[C@H](CC(C)C)NC(=O)[C@H](CC(C)C)NC(=O)[C@H](CC(C)C)NC(=O)[C@@H]1CCCN1)C(=O)NCC(=O)N[C@@H](C)C(=O)N[C@@H](CO)C(=O)NCC(=O)NCC(=O)NCC(=O)NCC(=O)NCC(=O)O [Peptide 9019.0177] | naturally processed peptides |  | 
2 | CC[C@H](C)[C@H](NC(=O)[C@H](CC(C)C)NC(=O)[C@H](CCCCN)NC(=O)CNC(=O)[C@@H](N)[C@@H](C)O)C(=O)N[C@@H](CCC(N)=O)C(=O)NCC(=O)N[C@@H](C)C(=O)N1CCC[C@H]1C(=O)N[C@H](C(=O)N[C@H](C(=O)N[C@@H](CCCNC(=N)N)C(=O)NCC(=O)N[C@@H](CC(=O)O)C(=O)N1CCC[C@H]1C(=O)O)[C@@H](C)CC)[C@@H](C)O [Peptide 9019.0192] | naturally processed peptides |  | 
3 | GDPLNNTTPVTGASP [Peptide 9019.0036] |  |  | IC50 [2]: 13.2 µM
4 | CC[C@H](C)[C@H](NC(=O)[C@@H]1CCCN1)C(=O)N[C@@H](CCCCN)C(=O)N[C@@H](Cc1c[nH]c2ccccc12)C(=O)N[C@@H](CCSC)C(=O)N[C@@H](C)C(=O)N[C@@H](CC(C)C)C(=O)N[C@@H](CCC(=O)O)C(=O)N[C@@H](CO)C(=O)N[C@H](C(=O)N[C@@H](CC(C)C)C(=O)N[C@@H](CCCNC(=N)N)C(=O)N[C@@H](CCCNC(=N)N)C(=O)N[C@@H](CCCNC(=N)N)C(=O)N[C@@H](Cc1ccccc1)C(=O)O)[C@@H](C)CC [Peptide 9019.0087] | naturally processed and presented antigens | 25 | fraction of patients that had mean T cell values above the cutoff ([3]; FIG. 1): 25%
5 | CC[C@H](C)[C@H](NC(=O)[C@@H](NC(=O)[C@H](CC(C)C)NC(=O)[C@H](CCCCN)NC(=O)[C@H](C)NC(=O)[C@@H](NC(=O)[C@@H](NC(=O)[C@@H]1CCCN1C(=O)[C@@H]1CCCN1C(=O)[C@H](CC(N)=O)NC(=O)[C@H](Cc1c[nH]c2ccccc12)NC(=O)[C@H](Cc1ccccc1)NC(=O)[C@@H](NC(=O)[C@H](CC(C)C)NC(=O)[C@@H](N)CC(C)C)[C@@H](C)O)[C@@H](C)O)[C@@H](C)O)[C@@H](C)O)C(=O)O [Peptide 9019.0105] |  | 17 | 
6 | CC[C@H](C)[C@H](NC(=O)[C@H](Cc1c[nH]cn1)NC(=O)[C@H](CC(C)C)NC(=O)[C@H](CO)NC(=O)[C@H](Cc1ccc(O)cc1)NC(=O)[C@H](CC(C)C)NC(=O)[C@H](Cc1c[nH]cn1)NC(=O)[C@H](CCC(=O)O)NC(=O)[C@H](CC(C)C)NC(=O)[C@@H]1CCCN1C(=O)CNC(=O)[C@H](CCCNC(=N)N)NC(=O)[C@@H](N)CCC(=O)O)C(=O)N1CCC[C@H]1C(=O)N[C@@H](CC(N)=O)C(=O)O [Peptide 9019.0190] | naturally processed peptides | 23 | 
7 | CC(C)C[C@H](NC(=O)[C@@H]1CCCN1C(=O)[C@@H](NC(=O)[C@@H](NC(=O)[C@@H]1CCCN1C(=O)[C@H](CC(=O)O)NC(=O)[C@H](CCC(=O)O)NC(=O)[C@H](CO)NC(=O)[C@H](Cc1ccc(O)cc1)NC(=O)[C@H](CCCNC(=N)N)NC(=O)[C@H](CCC(N)=O)NC(=O)[C@@H](N)CC(C)C)[C@@H](C)O)C(C)C)C(=O)N1CCC[C@H]1C(=O)N[C@@H](CO)C(=O)N[C@@H](CCC(=O)O)C(=O)O [Peptide 9019.0099] |  |  | IC50 [4]: 13.1 µM
8 | CC(C)C[C@H](NC(=O)[C@H](CC(N)=O)NC(=O)[C@H](CO)NC(=O)[C@@H](NC(=O)[C@H](Cc1ccccc1)NC(=O)[C@H](CS)NC(=O)[C@H](C)NC(=O)[C@@H](N)Cc1ccc(O)cc1)C(C)C)C(=O)N[C@@H](C)C(=O)N[C@H](C(=O)NCC(=O)N[C@@H](CCCNC(=N)N)C(=O)N[C@@H](CC(N)=O)C(=O)N[C@@H](CC(N)=O)C(=O)N[C@@H](CO)C(=O)O)[C@@H](C)O [Peptide 9019.0141] |  | 25 | 
9 | CC[C@H](C)[C@H](NC(=O)[C@H](CCCNC(=N)N)NC(=O)[C@H](CC(C)C)NC(=O)[C@H](CCCNC(=N)N)NC(=O)[C@H](CCC(N)=O)NC(=O)[C@H](CC(C)C)NC(=O)[C@@H]1CCCN1C(=O)[C@@H](NC(=O)[C@H](CCC(N)=O)NC(=O)[C@H](CCCNC(=N)N)NC(=O)[C@@H](NC(=O)[C@H](CCC(N)=O)NC(=O)[C@H](CC(N)=O)NC(=O)[C@@H](N)Cc1c[nH]cn1)C(C)C)C(C)C)C(=O)N[C@H](C(=O)O)C(C)C [Peptide 9019.0034] | naturally processed and presented antigens |  | 
10 | CC(C)C[C@H](NC(=O)[C@H](CO)NC(=O)[C@H](C)NC(=O)[C@H](CC(N)=O)NC(=O)[C@@H](NC(=O)[C@@H]1CCCN1C(=O)[C@H](CC(C)C)NC(=O)[C@H](Cc1ccc(O)cc1)NC(=O)[C@@H](NC(=O)[C@H](CC(C)C)NC(=O)[C@H](CCC(=O)O)NC(=O)[C@H](CC(C)C)NC(=O)[C@@H](N)CC(N)=O)[C@@H](C)O)[C@@H](C)O)C(=O)N[C@@H](CO)C(=O)N[C@@H](Cc1ccccc1)C(=O)O [Peptide 9019.0030] | naturally processed and presented antigens | 15 | 
11 | CC(C)C[C@H](NC(=O)[C@H](CC(C)C)NC(=O)[C@H](CC(C)C)NC(=O)[C@H](CC(C)C)NC(=O)[C@H](CC(C)C)NC(=O)[C@H](CC(C)C)NC(=O)[C@@H]1CCCN1C(=O)[C@H](CC(C)C)NC(=O)[C@H](CC(C)C)NC(=O)[C@@H]1CCCN1C(=O)[C@H](CC(C)C)NC(=O)[C@@H](N)CC(C)C)C(=O)NCC(=O)N[C@@H](C)C(=O)N[C@@H](CO)C(=O)O [Peptide 9019.0176] | naturally processed peptides |  | 
12 | CC[C@H](C)[C@H](NC(=O)[C@H](CC(=O)O)NC(=O)[C@H](CCCCN)NC(=O)[C@H](Cc1c[nH]c2ccccc12)NC(=O)[C@H](CC(C)C)NC(=O)[C@@H](NC(=O)[C@@H](NC(=O)[C@H](CC(=O)O)NC(=O)[C@H](CCC(N)=O)NC(=O)[C@H](Cc1ccc(O)cc1)NC(=O)[C@H](CS)NC(=O)[C@H](CC(C)C)NC(=O)[C@H](CCC(N)=O)NC(=O)[C@@H]1CCCN1C(=O)[C@@H](N)CC(N)=O)[C@@H](C)O)[C@@H](C)CC)C(=O)O [Peptide 9019.0041] |  |  | IC50 [2]: > 20 µM
13 | CC[C@H](C)[C@H](N)C(=O)N[C@@H](CCCCN)C(=O)N[C@@H](Cc1c[nH]c2ccccc12)C(=O)N[C@@H](CCSC)C(=O)N[C@@H](C)C(=O)N[C@@H](CC(C)C)C(=O)N[C@@H](CCC(=O)O)C(=O)N[C@@H](CO)C(=O)N[C@H](C(=O)N[C@@H](CC(C)C)C(=O)N[C@@H](CCCNC(=N)N)C(=O)N[C@@H](CCCNC(=N)N)C(=O)N[C@@H](CCCNC(=N)N)C(=O)N[C@@H](Cc1ccccc1)C(=O)N[C@H](C(=O)O)[C@@H](C)O)[C@@H](C)CC [Peptide 9019.0003] |  |  | fraction of patients that had mean T cell values above the cutoff ([3]; FIG. 1): 4%; patient response rate on exclusion of one healthy individual's data point ([3]; FIG. 1, robust healthy responder excluded from cutoff): 15%
14 | CC[C@H](C)[C@H](NC(=O)[C@H](C)NC(=O)[C@@H](NC(=O)[C@@H]1CCCN1C(=O)[C@@H](NC(=O)[C@@H](N)CCCCN)[C@@H](C)CC)C(C)C)C(=O)N[C@@H](CCCCN)C(=O)N[C@H](C(=O)N[C@@H](CC(C)C)C(=O)N[C@@H](CCCNC(=N)N)C(=O)N[C@@H](CCC(=O)O)C(=O)N[C@@H](CC(N)=O)C(=O)N[C@H](C(=O)N[C@@H](CO)C(=O)N1CCC[C@H]1C(=O)O)[C@@H](C)O)C(C)C [Peptide 1622.03] |  |  | IC50 [2]: > 20 µM
